In patent US8101761B2, “(E)-N-{3-[1-(8-fluoro-11H-10-OXA-1-AZA-dibenzo [A,D] cyclohepten-5ylidene)-propyl]-phenyl}-methanesulfonamide as glucocorticoid receptor modulator for the treatment of rheumatoid arthritis” (Eli Lilly and Company, priority 2008, dated 2012):
Where two headings read alike, the source gives them in different places.

Tested on: carrageenan-induced paw edema in male Sprague-Dawley rats
Assay: Carrageenan-induced paw edema (CPE) model
Assay type: in vivo
Conditions: rat, oral gavage 2 h before carrageenan, paws taken 3 h after, mean of 5 determinations
Text: Carrageenans are a group of polysaccharides which can induce an acute inflammatory response in animals. Cardinal signs of inflammation including edema, hyperalgesia and erythema are developed in the injection site immediately following injection. The CPE model is a recognized model of inflammation and can be used to evaluate the anti-inflammatory effects of glucocorticoid receptor ligands.
To evaluate the anti-inflammatory effects of Compound (I), the compound is formulated in a vehicle comprising 0.5% carboxymethyl cellulose and 0.25% Tween 80 then administered orally via gavage to male Sprague-Dawley rats (180-200 g). For comparison, prednisolone may be administered orally in the same vehicle. Two hours later, 1% carrageenan in 50 μl of 0.9% pyrogen free saline is injected into the subplantar regions of the right hind paw. Rats are euthanized by CO2 at 3 hours after the carrageenan injection. Paws are removed then weighed using a microbalance. Paws are then dissected by making several cuts on the paw surface and immediately immersing into liquid nitrogen until frozen. Frozen paws are then centrifuged to extract the exudates. Exudate levels of IL-1β, a cytokine generated during the inflammatory response is then measured by ELISA according to manufacturers instructions. Total paw protein is also measured using a protein assay kit and the absolute level of IL-1β is normalized to yield a concentration value of ng IL-1β/mg total protein.

C[C@]12C=CC(=O)C=C1CC[C@@H]1[C@@H]2[C@@H](O)C[C@@]2(C)[C@H]1CC[C@]2(O)C(=O)CO [prednisolone, reference compound] gave an ED50 (read-out: ED50, inhibition of carrageenan induced paw weight gain) of about 6.6 mg/kg and an ED50 (read-out: ED50, reduction of paw exudate levels of IL-1β) of under 1 mg/kg.
